Results: paper PMC3391414 (Journal of Agricultural and Food Chemistry, 2011)
Several values for one entry are separate records, joined by “and”; a condition that tells them apart may be missing. Equal values may be shown once. Entries after “also recorded” stand apart in the source; their conditions may differ. Read-outs that look alike come from different tables or passages of the source.

Tests used:
[1] = biological target: T1, UGT1A7 (Homo sapiens, UniProt Q9HAW7); settings: 10 μM, pH 7.4
T1 sequence (Q9HAW7 26-530): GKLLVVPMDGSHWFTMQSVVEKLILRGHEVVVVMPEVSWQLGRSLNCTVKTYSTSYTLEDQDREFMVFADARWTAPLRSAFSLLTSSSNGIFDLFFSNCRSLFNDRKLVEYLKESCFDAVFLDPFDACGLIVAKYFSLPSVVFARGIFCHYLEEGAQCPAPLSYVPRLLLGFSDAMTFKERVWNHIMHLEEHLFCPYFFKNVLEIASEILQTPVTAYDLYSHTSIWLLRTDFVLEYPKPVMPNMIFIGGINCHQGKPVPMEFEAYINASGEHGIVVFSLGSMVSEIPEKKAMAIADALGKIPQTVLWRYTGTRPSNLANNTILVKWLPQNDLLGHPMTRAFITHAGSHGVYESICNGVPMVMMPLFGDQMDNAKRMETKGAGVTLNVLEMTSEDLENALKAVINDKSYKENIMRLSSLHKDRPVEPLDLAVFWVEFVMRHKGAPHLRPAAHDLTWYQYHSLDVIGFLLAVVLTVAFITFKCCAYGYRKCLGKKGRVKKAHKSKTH

[2] = cited from earlier work
[3] = biological target: T2, UGT1A8 (Homo sapiens, UniProt Q9HAW9); settings: 10 μM, pH 7.4
T2 sequence (Q9HAW9 26-530): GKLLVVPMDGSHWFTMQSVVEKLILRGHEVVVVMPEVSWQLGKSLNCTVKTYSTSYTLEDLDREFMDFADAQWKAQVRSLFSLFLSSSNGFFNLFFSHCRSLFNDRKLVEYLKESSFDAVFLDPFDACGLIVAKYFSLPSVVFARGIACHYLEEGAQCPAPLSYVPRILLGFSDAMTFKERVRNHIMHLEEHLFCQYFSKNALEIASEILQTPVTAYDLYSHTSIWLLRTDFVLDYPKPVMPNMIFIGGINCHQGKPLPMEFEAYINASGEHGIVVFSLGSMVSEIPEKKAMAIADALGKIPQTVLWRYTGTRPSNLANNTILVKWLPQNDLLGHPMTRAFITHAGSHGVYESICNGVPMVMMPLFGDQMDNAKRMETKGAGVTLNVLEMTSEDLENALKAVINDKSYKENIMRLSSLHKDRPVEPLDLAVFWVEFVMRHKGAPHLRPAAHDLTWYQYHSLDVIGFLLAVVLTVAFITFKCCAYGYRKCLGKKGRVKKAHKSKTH

[4] = biological target: T3, UGT1A10 (Homo sapiens, UniProt Q9HAW8); settings: 10 μM, pH 7.4
T3 sequence (Q9HAW8 26-530): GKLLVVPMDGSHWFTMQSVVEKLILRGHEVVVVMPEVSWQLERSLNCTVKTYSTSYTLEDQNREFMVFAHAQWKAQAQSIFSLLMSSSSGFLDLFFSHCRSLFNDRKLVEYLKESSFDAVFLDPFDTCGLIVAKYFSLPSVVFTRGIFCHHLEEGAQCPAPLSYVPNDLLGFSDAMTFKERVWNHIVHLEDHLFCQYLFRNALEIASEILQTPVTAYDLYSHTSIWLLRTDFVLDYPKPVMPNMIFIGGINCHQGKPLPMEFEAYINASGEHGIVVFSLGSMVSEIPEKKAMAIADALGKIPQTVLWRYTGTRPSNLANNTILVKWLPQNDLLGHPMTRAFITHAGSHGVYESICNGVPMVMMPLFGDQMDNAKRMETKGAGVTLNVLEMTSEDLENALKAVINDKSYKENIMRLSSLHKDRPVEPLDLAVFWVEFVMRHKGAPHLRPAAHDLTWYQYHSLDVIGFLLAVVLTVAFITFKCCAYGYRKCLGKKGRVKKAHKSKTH

[5] = biological target: T4, UGT1A6 (Homo sapiens, UniProt P19224); settings: 10 μM, pH 7.4
T4 sequence (P19224 27-532): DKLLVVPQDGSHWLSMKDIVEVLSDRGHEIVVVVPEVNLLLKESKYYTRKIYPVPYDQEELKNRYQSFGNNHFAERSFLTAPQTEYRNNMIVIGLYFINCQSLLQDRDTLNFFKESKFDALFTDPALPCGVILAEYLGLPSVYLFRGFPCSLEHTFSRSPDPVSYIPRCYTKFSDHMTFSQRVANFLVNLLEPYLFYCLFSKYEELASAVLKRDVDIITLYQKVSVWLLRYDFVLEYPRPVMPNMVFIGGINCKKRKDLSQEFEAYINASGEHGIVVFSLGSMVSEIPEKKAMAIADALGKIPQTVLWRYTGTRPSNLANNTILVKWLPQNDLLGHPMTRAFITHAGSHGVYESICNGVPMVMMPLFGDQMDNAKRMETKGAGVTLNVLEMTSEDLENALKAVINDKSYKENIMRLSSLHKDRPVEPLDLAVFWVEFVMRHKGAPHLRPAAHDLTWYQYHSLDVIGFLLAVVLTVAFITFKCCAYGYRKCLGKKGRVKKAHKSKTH

[6] = biological target: T2, UGT1A8; assay: Glucuronidation by recombinant human UGT1A8
[7] = biological target: T5, UGT1A3 (Homo sapiens, UniProt P35503); assay: Glucuronidation by recombinant human UGT1A3
T5 sequence (P35503 29-534): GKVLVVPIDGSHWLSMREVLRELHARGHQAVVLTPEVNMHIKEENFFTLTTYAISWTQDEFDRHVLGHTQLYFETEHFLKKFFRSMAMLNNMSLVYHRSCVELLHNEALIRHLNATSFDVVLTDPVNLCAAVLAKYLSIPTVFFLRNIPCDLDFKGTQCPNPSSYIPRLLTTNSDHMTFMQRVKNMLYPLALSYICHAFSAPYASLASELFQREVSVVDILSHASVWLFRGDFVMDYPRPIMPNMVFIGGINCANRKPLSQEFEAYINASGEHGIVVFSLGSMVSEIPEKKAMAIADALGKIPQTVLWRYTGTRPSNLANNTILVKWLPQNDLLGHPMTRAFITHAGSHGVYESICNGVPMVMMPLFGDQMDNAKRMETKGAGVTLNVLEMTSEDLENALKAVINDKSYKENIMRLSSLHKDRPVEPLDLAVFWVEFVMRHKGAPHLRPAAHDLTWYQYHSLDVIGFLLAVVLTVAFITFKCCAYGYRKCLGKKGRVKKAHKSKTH

[8] = biological target: T3, UGT1A10; assay: Glucuronidation by recombinant human UGT1A10; settings: UGT1A10, substrate 10 μM

Structure (SMILES) | Hydroxyl positions glucuronidated [1] | Glucuronide predominantly formed ([2]; human volunteers) | Hydroxyl positions glucuronidated [3] | Hydroxyl positions glucuronidated [4] | Hydroxyl positions glucuronidated [5] | Hydroxyl positions glucuronidated ([6]; UGT1A8, substrate 10 μM) | Degree of regiospecificity (3-O vs 7-O) ([6]; UGT1A8, substrate 35 μM) | Degree of regiospecificity (major glucuronide in bracket) ([7]; UGT1A3, substrate 2.5 μM) | Degree of regiospecificity (major glucuronide in bracket) ([7]; UGT1A3, substrate 10 μM) | Hydroxyl positions glucuronidated ([7]; UGT1A3, substrate 10 μM) | Degree of regiospecificity (major glucuronide in bracket) ([7]; UGT1A3, substrate 10 μM, listed as 5,7,4’THFnol) | Predominant form in plasma ([2]; after oral intake in human) | Hydroxyl positions glucuronidated [8]
O=c1cc(-c2ccccc2)oc2cc(O)cc(O)c12 [5,7DHF, 5,7-dihydroxyflavone] | glucuronidated 7-O position only | predominantly form 7-O-glucuronide | glucuronidated 7-O position only | glucuronidated both 7-O and 5-O positions | glucuronidated both 7-O and 5-O positions |  |  |  |  |  |  |  | 
O=c1c(O)c(-c2ccc(O)cc2)oc2cc(O)cc(O)c12 [5,7,4'THFnol, 3,5,7,4’-tetrahydroxyflavone] |  |  |  |  |  | glucuronidated 3-O, 7-O and 4’-O | weak regiospecificity and 7-O was the preferred position | No (3-O, 7-O) | No (3-O, 7-O) | glucuronidated 3-O, 7-O and 4’-O | no regiospecific preference between 3-O and 7-O; also recorded: did not show dominant regiospecificity for 7-O position | 3-O-glucuronide of kaempferol was found to be the predominant form in plasma | glucuronidated 3-O, 7-O and 4’-O
